Tests used:
IFNγ-induced IP-10 = test: Assay 14: Pharmacodynamic assay: inhibition of IFNγ-induced IP-10 in rabbits; type: in vivo, New Zealand White rabbits; conditions: rabbit
Description: The ability of a single intravitreal administration of test compound to inhibit interferon-gamma (IFNγ) induced IP-10 protein levels was measured in rabbit vitreous and retina/choroid tissues.
Solution formulations at concentrations of 1 mg/mL and 4 mg/mL of compound 1 of Example 2 were prepared as in Assay 12. A suspension formulation was prepared by combining crystalline compound 1 of Example 2 with 0.5% hydroxypropyl methylcellulose (HPMC E5), 0.02% Tween 80, and 9 mg/mL sodium chloride in purified water to attain a target concentration of 20 mg/mL.
Male, New Zealand White rabbits (Liveon Biolabs, India) were used for the studies. Animals were acclimated after arrival at the research facilities (Jubilant Biosys Ltd., India). Each rabbit was given a total of two intravitreal (IVT) injections with a total dose volume of 50 μL per eye. The first IVT injection (45 μL per eye) delivered test compound or vehicle at a prescribed time point (i.e. 24 hours for the solution formulations or 1 week for the suspension formulation). The second IVT injection (5 μL per eye) delivered IFNγ (1 μg/eye; Stock solution 1 mg/mL; Kingfisher Biotech) or vehicle for the induction of IP-10. In brief, on the day of the injections, rabbits were anesthetized with an intramuscular injection of ketamine (35 mg/kg) and xylazine (5 mg/kg). Once deeply anesthetized, each eye was rinsed with sterile saline and IVT injections were performed using a 0.5 mL insulin syringe (50 units=0.5 mL) with a 31-gauge needle at the supra-nasal side of the both eyes by marking the position with a Braunstein fixed caliper (2 ¾″) 3.5 mm from the rectus muscle and 4 mm from the limbus.
Tissues were collected 24 hours after the second IVT injection with IFNγ. Vitreous humor (VH) and retina/choroid tissues (R/C) were collected and homogenized, and IP-10 protein levels were measured using a rabbit CXCL10 (IP-10) ELISA kit (Kingfisher Biotech). The percent inhibition of IFNγ-induced IP-10 was calculated in comparison to the vehicle/vehicle and vehicle/IFNγ groups.

JAK2 = biological target: T1, JAK2 (Homo sapiens, UniProt O60674); test: Assay 1: LanthaScreen biochemical JAK kinase assay, JAK2; conditions: converted from pIC50 by Cheng-Prusoff; ATP at Km 3 μM; read-out: JAK 2 pKi (converted)
T1 construct: GST; purchased Life Technologies
T1 sequence (O60674 whole entry): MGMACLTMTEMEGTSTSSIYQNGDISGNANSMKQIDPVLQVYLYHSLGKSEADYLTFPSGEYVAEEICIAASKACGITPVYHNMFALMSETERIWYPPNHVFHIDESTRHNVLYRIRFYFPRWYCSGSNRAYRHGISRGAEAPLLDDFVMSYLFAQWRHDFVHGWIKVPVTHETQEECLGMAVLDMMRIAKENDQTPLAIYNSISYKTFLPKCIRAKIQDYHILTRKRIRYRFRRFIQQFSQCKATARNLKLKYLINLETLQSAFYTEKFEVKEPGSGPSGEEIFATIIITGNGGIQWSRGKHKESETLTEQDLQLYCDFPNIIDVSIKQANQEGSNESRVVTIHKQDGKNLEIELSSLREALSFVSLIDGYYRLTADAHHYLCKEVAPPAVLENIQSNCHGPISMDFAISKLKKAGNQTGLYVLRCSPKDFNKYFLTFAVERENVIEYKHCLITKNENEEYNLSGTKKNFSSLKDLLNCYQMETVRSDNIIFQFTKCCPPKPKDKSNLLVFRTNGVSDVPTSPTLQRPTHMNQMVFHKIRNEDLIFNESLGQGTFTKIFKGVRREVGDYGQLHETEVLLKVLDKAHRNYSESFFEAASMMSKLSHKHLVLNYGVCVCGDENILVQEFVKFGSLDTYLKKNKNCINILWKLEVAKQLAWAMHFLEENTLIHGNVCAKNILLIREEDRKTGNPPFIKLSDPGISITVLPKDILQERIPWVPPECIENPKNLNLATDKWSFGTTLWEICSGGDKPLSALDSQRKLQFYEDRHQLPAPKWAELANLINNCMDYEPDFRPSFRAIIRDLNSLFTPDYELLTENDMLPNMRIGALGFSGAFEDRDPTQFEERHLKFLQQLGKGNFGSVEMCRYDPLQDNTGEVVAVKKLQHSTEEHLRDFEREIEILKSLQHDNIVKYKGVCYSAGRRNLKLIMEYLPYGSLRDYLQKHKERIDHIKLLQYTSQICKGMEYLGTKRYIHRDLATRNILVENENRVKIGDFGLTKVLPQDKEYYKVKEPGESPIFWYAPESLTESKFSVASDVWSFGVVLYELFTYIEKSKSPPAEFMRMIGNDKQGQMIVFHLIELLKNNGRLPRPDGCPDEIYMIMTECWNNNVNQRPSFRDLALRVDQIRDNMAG
Description: A panel of four LanthaScreen JAK biochemical assays (JAK1, 2, 3 and Tyk2) were carried in a common kinase reaction buffer (50 mM HEPES, pH 7.5, 0.01% Brij-35, 10 mM MgCl2, and 1 mM EGTA). Recombinant GST-tagged JAK enzymes and a GFP-tagged STAT1 peptide substrate were obtained from Life Technologies.
The serially diluted compound was pre-incubated with each of the four JAK enzymes and the substrate in white 384-well microplates (Corning) at ambient temperature for lh. ATP was subsequently added to initiate the kinase reactions in 10 μL total volume, with 1% DMSO. […] The plates were allowed to incubate at ambient temperature for lh before being read on the EnVision reader (Perkin Elmer). Emission ratio signals (520 nm/495 nm) were recorded and utilized to calculate the percent inhibition values based on DMSO and background controls.
For dose-response analysis, percent inhibition data were plotted vs. compound concentrations, and IC50 values were determined from a 4-parameter robust fit model with the Prism software (GraphPad Software). Results were expressed as pIC50 (negative logarithm of IC50) and subsequently converted to pK1 (negative logarithm of dissociation constant, Ki) using the Cheng-Prusoff equation.

[1] = IVT crystalline suspension 20 mg/mL (Example 2), 1 week pre-treatment
[2] = IVT solution, 45 μg, 24 hour pre-treatment
[3] = IVT solution, 180 μg, 24 hour pre-treatment

SMILES: CCc1cc(O)c(F)cc1-c1ccc2c(-c3nc4c([nH]3)CCN(C3CCN(C)CC3)C4)n[nH]c2c1 [Compound 1, 5-ethyl-2-fluoro-4-(3-(5-(1-methylpiperidin-4-yl)-4,5,6,7-tetrahydro-1H-imidazo[4,5-c]pyridin-2-yl)-1H-indazol-6-yl)phenol]
- inhibition of IFNγ-induced IP-10 in retina/choroid tissues (IFNγ-induced IP-10; [1]): 100%
- inhibition of IFNγ-induced IP-10 in vitreous humor (IFNγ-induced IP-10; [1]): 100%
- inhibition of IFNγ-induced IP-10 in retina/choroid tissue (IFNγ-induced IP-10; [2]): 86%
- inhibition of IFNγ-induced IP-10 in vitreous humor (IFNγ-induced IP-10; [2]): 70%
- inhibition of IFNγ-induced IP-10 in retina/choroid tissue (IFNγ-induced IP-10; [3]): 100%
- inhibition of IFNγ-induced IP-10 in vitreous humor (IFNγ-induced IP-10; [3]): 91%
- Ki (JAK2): 0.0158 nM
